Data from US9193728B2, “Fused tetracyclic pyrido [4,3-B] indole and pyrido [3,4-B] indole derivatives and methods of use” (Medivation Technologies, Inc., priority 2010, dated 2015).

How the values were obtained:
[1] = target: T1, human recombinant histamine H2 receptor (Homo sapiens, UniProt P25021); assay: Histamine H2 radioligand binding ([125I]Aminopotentidine); conditions: compound at 1 μM; 0.1 nM [125I]Aminopotentidine; read-out: Histamine Binding (1 μM) H2, percentage inhibition
T1 construct: expressed in transfected cells; host or cells: CHO-K1
Experimental: To evaluate in radioligand binding assays the activity of compounds of the invention, human recombinant histamine H2 receptor expressed in Chinese hamster ovary (CHO) K1 cells (Ruat, M., Proc. Natl. Acad. Sci. USA. 87(5):1658, 1990) in a 50 mM Phosphate buffer, pH 7.4 was used. Compounds of the invention were incubated with 0.1 nM [^125I]Aminopotentidine for 120 min. at 25° C. Non-specific binding was estimated in the presence of 3 μM Tiotidine. Receptor proteins were filtered and washed, the filters were then counted to determine [^125I]Aminopotentidine specifically bound. Compounds were screened at 1 μM or lower, using 1% DMSO as vehicle. Biochemical assay results are presented as the percent inhibition of specific binding in Table 2.

[2] = target: T2, human recombinant dopamine D2L receptor (Homo sapiens, UniProt P14416); assay: Dopamine D2L radioligand binding ([3H]Spiperone); conditions: compound at 1 μM; for inhibition at 1 µM: read-out: Dopamine (1 μM) D2L, percentage inhibition of ligand binding
T2 construct: expressed in transfected cells; host or cells: CHO
Experimental: To evaluate in radioligand binding assays the activity of compounds of the invention, human recombinant dopamine D2L receptor expressed in Chinese hamster ovary (CHO) cells (Grandy, D. et al, Proc. Natl. Acad. Sci. USA. 86:9762, 1989; Hayes, G. et al, Mol. Endocrinol. 6:920, 1992) in a modified Tris-HCl buffer (50 mM Tris-HCl, pH 7.4, 1.4 mM Ascorbic Acid, 0.001% BSA, 150 mM NaCl) was used. Compounds of the invention were incubated with 0.16 nM [^3H]Spiperone for 120 min. at 25° C. Non-specific binding was estimated in the presence of 10 μM Haloperidol. Receptor proteins were filtered and washed, the filters were then counted to determine [^3H]Spiperone specifically bound. Compounds were screened at 1 μM or lower, using 1% DMSO as vehicle. Biochemical assay results are presented as the percent inhibition of specific binding in Table 3.

[3] = target: T3, human recombinant serotonin (5-Hydroxytryptamine) 5-HT6 receptor (Homo sapiens, UniProt P50406); assay: Serotonin 5-HT6 radioligand binding ([3H]LSD); conditions: for inhibition at 0.1 µM / Serotonin (0.1 μM) 5-HT6, percentage inhibition of ligand binding: compound at 0.1 μM; for inhibition at 0.1 µM: read-out: Serotonin (0.1 μM) 5-HT6, percentage inhibition of ligand binding
T3 construct: expressed in transfected cells; host or cells: HeLa
Experimental: To evaluate in radioligand binding assays the activity of compounds of the invention, human recombinant serotonin (5-Hydroxytryptamine) 5-HT6 receptor expressed in human HeLa cells (Monsma, F. Jr. et al, Mol. Pharmacol. 43:320, 1993) in a modified Tris-HCl buffer (50 mM Tris-HCl, pH 7.4, 150 mM NaCl, 2 mM Ascorbic Acid, 0.001% BSA) was used. Compounds of the invention were incubated with 1.5 nM [3H]Lysergic acid diethylamide (LSD) for 120 min. at 37° C. Non-specific binding was estimated in the presence of 5 μM Serotonin (5-HT). Receptor proteins were filtered and washed, the filters were then counted to determine [3H]LSD specifically bound. Compounds were screened at 1 μM or lower, using 1% DMSO as vehicle. Biochemical assay results are presented as the percent inhibition of specific binding in Table 4.

[4] = target: T4, human recombinant histamine H1 receptor (Homo sapiens, UniProt P35367); assay: Histamine H1 radioligand binding ([3H]Pyrilamine); conditions: 1.2 nM [3H]Pyrilamine; for inhibition at 0.1 µM / Histamine Binding (0.1 μM) H1, percentage inhibition: compound at 0.1 μM; for inhibition at 0.1 µM: read-out: Histamine Binding (0.1 μM) H1, percentage inhibition
T4 construct: expressed in transfected cells; host or cells: CHO-K1
Experimental: To evaluate in radioligand binding assays the activity of compounds of the invention, human recombinant histamine H1 receptor expressed in Chinese hamster ovary (CHO) K1 cells (De Backer, M. et al, Biochem. Biophys. Res. Comm. 197(3):1601, 1993) in a modified Tris-HCl buffer (50 mM Tris-HCl, pH 7.4, 2 mM MgCl2, 100 mM NaCl, 250 mM Sucrose) was used. Compounds of the invention were incubated with 1.2 nM [^3H]Pyrilamine for 180 min. at 25° C. Non-specific binding was estimated in the presence of 1 μM Pyrilamine. Receptor proteins were filtered and washed, the filters were then counted to determine [^3H]Pyrilamine specifically bound. Compounds were screened at 1 μM or lower, using 1% DMSO as vehicle. Biochemical assay results are presented as the percent inhibition of specific binding in Table 2.

[5] = target: T5, rat adrenergic α1A receptor (Rattus norvegicus, UniProt P43140); assay: Adrenergic α1A radioligand binding ([3H]Prazosin); conditions: compound at 0.1 μM; for inhibition at 0.1 µM: read-out: Adrenergic (0.1 μM) a1A, percentage inhibition of ligand binding
T5 construct: rat adrenergic α1A receptor obtained from Wistar Rat submaxillary glands; from tissue; host or cells: Wistar rat submaxillary glands
T5 sequence (P43140 1-466): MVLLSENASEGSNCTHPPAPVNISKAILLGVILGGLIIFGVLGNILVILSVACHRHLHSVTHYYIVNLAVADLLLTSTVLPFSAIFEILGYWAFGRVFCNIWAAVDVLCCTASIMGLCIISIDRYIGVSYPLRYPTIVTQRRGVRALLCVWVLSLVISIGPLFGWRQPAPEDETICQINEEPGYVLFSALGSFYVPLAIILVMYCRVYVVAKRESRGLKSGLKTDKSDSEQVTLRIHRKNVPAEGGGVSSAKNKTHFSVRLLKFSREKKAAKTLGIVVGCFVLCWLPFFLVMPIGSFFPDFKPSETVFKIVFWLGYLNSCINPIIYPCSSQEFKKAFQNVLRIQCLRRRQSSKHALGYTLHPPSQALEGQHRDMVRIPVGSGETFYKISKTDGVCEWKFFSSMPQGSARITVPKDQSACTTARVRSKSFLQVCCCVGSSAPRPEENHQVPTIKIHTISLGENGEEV
Experimental: To evaluate in radioligand binding assays the activity of compounds of the invention, rat adrenergic α1A receptor obtained from Wistar Rat submaxillary glands (Michel, A. et al, Br. J. Pharmacol. 98:883, 1989) in a modified Tris-HCl buffer (50 mM Tris-HCl buffer, pH 7.4, 0.5 mM EDTA) was used. Compounds of the invention were incubated with 0.25 nM [^3H]Prazosin for 60 min. at 25° C. Non-specific binding was estimated in the presence of 10 μM phentolamine. Receptor proteins were filtered and washed, the filters were then counted to determine [^3H]Prazosin specifically bound. Compounds of the invention were screened at 1 μM or lower, using 1% DMSO as vehicle. Biochemical assay results are presented as the percent inhibition of specific binding in Table 3.

T3 sequence (P50406 whole entry): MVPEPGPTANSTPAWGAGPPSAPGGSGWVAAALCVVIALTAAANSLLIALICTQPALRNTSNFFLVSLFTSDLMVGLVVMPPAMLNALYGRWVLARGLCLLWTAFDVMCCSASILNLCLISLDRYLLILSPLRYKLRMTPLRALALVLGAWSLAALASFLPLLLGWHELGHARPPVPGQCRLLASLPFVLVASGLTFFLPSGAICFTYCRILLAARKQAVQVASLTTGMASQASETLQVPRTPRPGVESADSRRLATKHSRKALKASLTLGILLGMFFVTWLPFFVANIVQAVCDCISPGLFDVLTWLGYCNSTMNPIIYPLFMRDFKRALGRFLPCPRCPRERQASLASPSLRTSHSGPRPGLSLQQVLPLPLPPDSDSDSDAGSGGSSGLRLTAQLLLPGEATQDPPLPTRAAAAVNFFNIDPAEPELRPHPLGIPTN
T2 sequence (P14416 whole entry): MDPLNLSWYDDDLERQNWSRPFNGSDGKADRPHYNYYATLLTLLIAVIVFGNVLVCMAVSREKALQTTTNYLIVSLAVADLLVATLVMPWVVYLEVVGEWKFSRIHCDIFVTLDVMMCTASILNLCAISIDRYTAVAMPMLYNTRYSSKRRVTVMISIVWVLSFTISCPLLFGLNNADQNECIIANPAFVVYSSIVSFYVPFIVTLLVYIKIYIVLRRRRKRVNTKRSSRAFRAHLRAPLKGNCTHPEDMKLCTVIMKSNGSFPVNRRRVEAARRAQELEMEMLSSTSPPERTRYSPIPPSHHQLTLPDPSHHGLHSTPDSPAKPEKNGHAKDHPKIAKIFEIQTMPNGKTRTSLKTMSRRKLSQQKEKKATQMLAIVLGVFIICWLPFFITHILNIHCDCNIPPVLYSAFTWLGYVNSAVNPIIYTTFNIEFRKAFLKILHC
T4 sequence (P35367 whole entry): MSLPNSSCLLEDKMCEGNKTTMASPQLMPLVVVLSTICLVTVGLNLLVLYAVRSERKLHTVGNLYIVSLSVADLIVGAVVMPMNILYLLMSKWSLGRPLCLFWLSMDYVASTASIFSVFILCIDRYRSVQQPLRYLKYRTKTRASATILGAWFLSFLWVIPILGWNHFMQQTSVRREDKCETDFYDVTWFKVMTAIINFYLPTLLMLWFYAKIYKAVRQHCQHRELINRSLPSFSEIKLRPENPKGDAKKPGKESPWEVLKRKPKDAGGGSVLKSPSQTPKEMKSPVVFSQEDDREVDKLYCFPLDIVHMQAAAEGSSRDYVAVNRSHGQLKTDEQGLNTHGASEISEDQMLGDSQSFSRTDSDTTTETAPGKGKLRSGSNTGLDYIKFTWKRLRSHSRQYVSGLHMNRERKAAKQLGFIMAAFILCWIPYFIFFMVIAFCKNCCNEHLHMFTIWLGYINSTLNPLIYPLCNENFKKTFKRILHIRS
T1 sequence (P25021 whole entry): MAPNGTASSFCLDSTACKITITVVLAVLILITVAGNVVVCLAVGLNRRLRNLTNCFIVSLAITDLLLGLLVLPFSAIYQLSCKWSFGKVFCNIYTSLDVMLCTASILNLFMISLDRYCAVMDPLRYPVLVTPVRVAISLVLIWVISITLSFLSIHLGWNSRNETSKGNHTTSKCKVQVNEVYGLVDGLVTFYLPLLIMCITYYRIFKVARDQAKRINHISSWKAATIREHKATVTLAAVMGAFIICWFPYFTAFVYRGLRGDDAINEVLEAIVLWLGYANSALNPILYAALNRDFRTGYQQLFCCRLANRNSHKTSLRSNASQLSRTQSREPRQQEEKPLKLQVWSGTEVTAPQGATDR

Q: Which results are given for Cc1cc2c3c(c1)c1c(n3CC(c3ccc(F)cc3)C2)CCN(C)C1 (stereo not drawn) [Compound 3]?
A: inhibition at 1 µM [1]: 75%; inhibition at 1 µM [2]: 96%; inhibition at 0.1 µM [3]: 80%; inhibition at 1 µM ([3]; compound at 1 μM, read-out: Serotonin (1 μM) 5-HT6, percentage inhibition of ligand binding): 96%; inhibition at 0.1 µM [4]: 49%; inhibition at 1 µM ([4]; compound at 1 μM, read-out: Histamine Binding (1 μM) H1, percentage inhibition): 83%

Q: Which inhibition at 1 µM [2] does the source give for Cc1cc2c3c(c1)c1c(n3CC(C)(c3ccc(C)nc3)OC(C)C2)CCN(C)C1 (stereo not drawn) [Compound 160] here?
A: 7%

Q: What about the inhibition at 0.1 µM [5] of the same compound?
A: -5%

Q: What about the inhibition at 0.1 µM [3] of the same compound?
A: -10%

Q: And the inhibition at 0.1 µM [4]?
A: 0%

Q: With Cc1cc2c3c(c1)c1c(n3CC(C)(c3ccc(C)nc3)OC2C)CCN(C)C1 (stereo not drawn) [Compound 161] as the compound, how does the “Dopamine (1 μM) D2L, percentage inhibition of ligand binding” value [2] read?
A: 10%

Q: And the “Adrenergic (0.1 μM) a1A, percentage inhibition of ligand binding” value [5]?
A: −8%

Q: And the “Serotonin (0.1 μM) 5-HT6, percentage inhibition of ligand binding” value [3]?
A: −8%

Q: And the “Histamine Binding (0.1 μM) H1, percentage inhibition” value [4]?
A: 13%

Q: Which results are given for Cc1cc2c3c(c1)c1c(n3C[C@@](C)(c3ccncc3)O[C@H]2C)CCN(C)C1 [Compound 162]?
A: inhibition at 1 µM [2]: 11%; inhibition at 0.1 µM [5]: -3%; inhibition at 0.1 µM [3]: -8%; inhibition at 0.1 µM [4]: 25%

Q: Cc1cc2c3c(c1)c1c(n3C[C@](C)(c3ccncc3)O[C@H]2C)CCN(C)C1 [Compound 163] was tested. Which inhibition at 1 µM [2] did it give?
A: 15%

Q: And the inhibition at 0.1 µM [5]?
A: -17%

Q: And the inhibition at 0.1 µM [3]?
A: 8%

Q: And the inhibition at 0.1 µM [4]?
A: 11%

Q: Cc1cc2c3c(c1)c1c(n3CC(C)(c3ccc(C)nc3)OC2C)CCN(C)C1 (stereo not drawn) [Compound 164] was tested. Which “Dopamine (1 μM) D2L, percentage inhibition of ligand binding” value [2] did it give?
A: 3%

Q: And the “Adrenergic (0.1 μM) a1A, percentage inhibition of ligand binding” value [5]?
A: −7%

Q: And the “Serotonin (0.1 μM) 5-HT6, percentage inhibition of ligand binding” value [3]?
A: −9%

Q: And the “Histamine Binding (0.1 μM) H1, percentage inhibition” value [4]?
A: −5%

Q: With Cc1cc2c3c(c1)c1c(n3CC(C)(c3ccncc3)OC(C)C2)CCN(C)C1 (stereo not drawn) [Compound 165] as the compound, how does the inhibition at 1 µM [2] read?
A: 10%

Q: And the inhibition at 0.1 µM [5]?
A: 11%

Q: What about the inhibition at 0.1 µM [3] of the same compound?
A: 10%

Q: And the inhibition at 0.1 µM [4]?
A: 37%
